Test results as given in ChEMBL document CHEMBL5236632, “Membrane-Active Nonivamide Derivatives as Effective Broad-Spectrum Antimicrobials: Rational Design, Synthesis, and Biological Evaluation” (J Med Chem, 2022).
Values after ≈ are worked out from the molar mass of the structure shown. Active and inactive are the calls of the source. No cut-off for these calls is given here.

How the values were obtained:
Staphylococcus aureus [1] = assay: Antibacterial activity against methicillin-resistant Staphylococcus aureus N315 assessed as inhibition of visible growth measured after 18 to 24 hrs by broth dilution method; format: functional; settings: time 18-24 hrs
Escherichia coli [2] = assay: Antibacterial activity against Escherichia coli ATCC 25922 assessed as inhibition of visible growth measured after 18 to 24 hrs by broth dilution method; format: functional; settings: time 18-24 hrs
[3] = Haemolytic activity in rabbit red blood cells incubated for 60 mins by k multi-mode reader relative to control; format: toxicity, cell-based, Oryctolagus cuniculus, Erythrocyte
Pseudomonas aeruginosa [4] = assay: Antibacterial activity against Pseudomonas aeruginosa ATCC 9027 assessed as inhibition of visible growth measured after 18 to 24 hrs by broth dilution method; format: functional; settings: time 18-24 hrs
Staphylococcus aureus [5] = assay: Antibacterial activity against Staphylococcus aureus ATCC 29213 assessed as inhibition of visible growth measured after 18 to 24 hrs in presence of 3220 ug/ml Na+ by broth dilution method; format: functional; settings: time 18-24 hrs
Staphylococcus aureus [6] = assay: Antibacterial activity against Staphylococcus aureus ATCC 29213 assessed as inhibition of visible growth measured after 18 to 24 hrs in presence of 100 ug/ml Ca2+ by broth dilution method; format: functional; settings: time 18-24 hrs
Staphylococcus aureus [7] = assay: Antibacterial activity against methicillin-resistant Staphylococcus aureus N315 assessed as inhibition of visible growth measured after 18 to 24 hrs in presence of 3220 ug/ml Na+ by broth dilution method; format: functional; settings: time 18-24 hrs
Staphylococcus aureus [8] = assay: Antibacterial activity against methicillin-resistant Staphylococcus aureus N315 assessed as inhibition of visible growth measured after 18 to 24 hrs in presence of 175.5 ug/ml K+ by broth dilution method; format: functional; settings: time 18-24 hrs
Staphylococcus aureus [9] = assay: Antibacterial activity against methicillin-resistant Staphylococcus aureus N315 assessed as inhibition of visible growth measured after 18 to 24 hrs in presence of 100 ug/ml Ca2+ by broth dilution method; format: functional; settings: time 18-24 hrs
Staphylococcus aureus [10] = assay: Antibacterial activity against methicillin-resistant Staphylococcus aureus N315 assessed as inhibition of visible growth measured after 18 to 24 hrs in presence of 24.3 ug/ml Mg2+ by broth dilution method; format: functional; settings: time 18-24 hrs
Staphylococcus aureus [11] = assay: Antibacterial activity against methicillin-resistant Staphylococcus aureus NCTC 10442 assessed as inhibition of visible growth measured after 18 to 24 hrs in presence of 3220 ug/ml Na+ by broth dilution method; format: functional; settings: time 18-24 hrs
Staphylococcus aureus [12] = assay: Antibacterial activity against methicillin-resistant Staphylococcus aureus NCTC 10442 assessed as inhibition of visible growth measured after 18 to 24 hrs in presence of 175.5 ug/ml K+ by broth dilution method; format: functional; settings: time 18-24 hrs
Staphylococcus aureus [13] = assay: Antibacterial activity against methicillin-resistant Staphylococcus aureus NCTC 10442 assessed as inhibition of visible growth measured after 18 to 24 hrs in presence of 100 ug/ml Ca2+ by broth dilution method; format: functional; settings: time 18-24 hrs
Escherichia coli [14] = assay: Antibacterial activity against Escherichia coli […] assessed as inhibition of visible growth measured after 18 to 24 hrs in presence of 3220 ug/ml Na+ by broth dilution method; format: functional; settings: time 18-24 hrs
Escherichia coli [15] = assay: Antibacterial activity against Escherichia coli […] assessed as inhibition of visible growth measured after 18 to 24 hrs in presence of 24.3 ug/ml Mg2+ by broth dilution method; format: functional; settings: time 18-24 hrs
Klebsiella pneumoniae = assay: Antibacterial activity against Klebsiella pneumoniae ATCC 10031 assessed as inhibition of visible growth measured after 18 to 24 hrs in presence of 24.3 ug/ml Mg2+ by broth dilution method; format: functional; settings: time 18-24 hrs
Escherichia coli [16] = assay: Antibacterial activity against Escherichia coli ATCC 25922 assessed as reduction in bacterial load at 8 time of MIC measured with in 30 mins by time kill assay; format: functional; settings: 0.5 h
Cell membrane [17] = assay: Induction of outer membrane permeability in Escherichia coli ATCC 25922 assessed as increase fluoresence intensity at 4 to 8 times of MIC measured for 60 mins by NPN uptake assay; format: subcellular
Cell membrane [18] = assay: Induction of membrane depolarization in Staphylococcus aureus ATCC 29213 assessed as increase in fluorescence intensity at 4 to 8 times MIC measured for 60 mins by DiSC3(5) dye based fluorescence method; format: subcellular
Cell membrane [19] = assay: Induction of membrane depolarization in Escherichia coli ATCC 25922 assessed as increase in fluorescence intensity at 4 to 8 times MIC measured for 60 mins by DiSC3(5) dye based fluorescence method; format: subcellular
Staphylococcus aureus [20] = assay: Inhibition of biofilm formation Staphylococcus aureus ATCC 29213 assessed as decrease in biofilm formation at 0.10 ug/ml measured after 24 hrs by crystal violet staining assay; format: functional
Staphylococcus aureus [21] = assay: Inhibition of biofilm formation Staphylococcus aureus ATCC 29213 assessed as decrease in biofilm formation at 0.78 ug/ml measured after 24 hrs by crystal violet staining assay; format: functional
Escherichia coli [22] = assay: Inhibition of biofilm formation Escherichia coli ATCC 25922 assessed as decrease in biofilm formation at 0.78 ug/ml measured after 24 hrs by crystal violet staining assay; format: functional
Escherichia coli [23] = assay: Inhibition of biofilm formation Escherichia coli ATCC 25922 assessed as decrease in biofilm formation at 3.13 ug/ml measured after 24 hrs by crystal violet staining assay; format: functional
Escherichia coli [24] = assay: Inhibition of biofilm formation Escherichia coli ATCC 25922 assessed as decrease in biofilm formation at 6.25 ug/ml measured after 24 hrs by crystal violet staining assay; format: functional
Staphylococcus aureus [25] = assay: Eradication of biofilm in Staphylococcus aureus ATCC 29213 assessed as biofilm viability at 0.20 ug/ml measured after 24 hrs by crystal violet staining assay; format: functional; settings: dose 0.2 µg/ml
Staphylococcus aureus [26] = assay: Eradication of biofilm in Staphylococcus aureus ATCC 29213 assessed as biofilm viability at 3.13 ug/ml measured after 24 hrs by crystal violet staining assay; format: functional; settings: dose 3.13 µg/ml
Staphylococcus aureus [27] = assay: Eradication of biofilm in Staphylococcus aureus ATCC 29213 assessed as biofilm viability at 6.25 ug/ml measured after 24 hrs by crystal violet staining assay; format: functional; settings: dose 6.25 µg/ml
Escherichia coli [28] = assay: Eradication of biofilm in Escherichia coli ATCC 25922 assessed as biofilm viability at 3.13 ug/ml measured after 24 hrs by crystal violet staining assay; format: functional; settings: dose 3.13 µg/ml
Escherichia coli [29] = assay: Eradication of biofilm in Escherichia coli ATCC 25922 assessed as biofilm viability at 6.25 ug/ml measured after 24 hrs by crystal violet staining assay; format: functional; settings: dose 6.25 µg/ml
Escherichia coli [30] = assay: Eradication of biofilm in Escherichia coli ATCC 25922 assessed as biofilm viability at 25 ug/ml measured after 24 hrs by crystal violet staining assay; format: functional; settings: dose 25 µg/ml
Staphylococcus aureus [31] = assay: Drug resistance development in Staphylococcus aureus ATCC 29213 assessed as fold change in MIC measured after 20 passages; format: functional
[32] = Cytotoxicity against HEK293 cells assessed as cell viability after 24 hrs incubation byCCK-8 assay; format: toxicity, cell-based; settings: human
[33] = Toxicity in C57BL/6 mouse cornea assessed as toxicity at 5 mg/ml treated topically; format: tissue-based; settings: in vivo, topical_or_ocular, route top
Pseudomonas aeruginosa [34] = assay: In vivo antibacterial activity against Pseudomonas aeruginosa ATCC 9027 infected in C57BL/6 mouse keratitis model assessed as reduction in number of viable bacterial colonies in infected cornea at 5 mg/kg topically 4 times per day for 3 consecutive days; format: functional; settings: route top, time 3 day

## CCCCCCCCC(=O)NCc1ccc(OCCCCCCNC(=N)N)c(OCCCCCCNC(=N)N)c1
Staphylococcus aureus [1]
  MIC: 0.39 µg/mL (≈ 0.694 µM)
Escherichia coli [2]
  MIC: 1.56 µg/mL (≈ 2.78 µM)
[3]; erythrocyte, 1 h
  HC5: 64.3 µg/mL
[3]; rabbit red blood cells
  HC50 at 1 h: 135 µg/mL
Pseudomonas aeruginosa [4]
  MIC: 6.25 µg/mL (≈ 11.1 µM)
Staphylococcus aureus [5]
  MIC: 0.39 µg/mL
Staphylococcus aureus [6]
  MIC: 0.39 µg/mL
Staphylococcus aureus [7]
  MIC: 0.39 µg/mL
Staphylococcus aureus [8]
  MIC: 0.39 µg/mL
Staphylococcus aureus [9]
  MIC: 0.39 µg/mL
Staphylococcus aureus [10]
  MIC: 0.39 µg/mL
Staphylococcus aureus [11]
  MIC: 0.39 µg/mL
Staphylococcus aureus [12]
  MIC: 0.39 µg/mL
Staphylococcus aureus [13]
  MIC: 0.39 µg/mL
Escherichia coli [14]
  MIC: 1.56 µg/mL
Escherichia coli [15]
  MIC: 1.56 µg/mL
Klebsiella pneumoniae
  MIC: 1.56 µg/mL
Escherichia coli [16]
  Activity: 4.56 log10CFU/ml
Cell membrane [17]
  Activity: Dose-Dependent Effect
Cell membrane [18]
  Activity: Active
Cell membrane [19]
  Activity: Active
Staphylococcus aureus [20]
  inhibition at 0.1 µg/mL: 34.1%
Staphylococcus aureus [21]
  inhibition at 0.78 µg/mL: 99.7%
Escherichia coli [22]
  inhibition at 0.78 µg/mL: 88.9%
Escherichia coli [23]
  inhibition at 3.13 µg/mL: 106%
Escherichia coli [24]
  inhibition at 6.25 µg/mL: 109%
Staphylococcus aureus [25]
  Activity: 87.32%
Staphylococcus aureus [26]
  Activity: 14%
Staphylococcus aureus [27]
  Activity: 10.9%
Escherichia coli [28]
  Activity: 38.07%
Escherichia coli [29]
  Activity: 22.66%
Escherichia coli [30]
  Activity: 7.05%
Staphylococcus aureus [31]
  fold change (FC): <4
[32]
  CC50 at 24 h: 27.8 µg/mL (≈ 49.5 µM)
[33]
  Activity: Non-Toxic
Pseudomonas aeruginosa [34]
  Activity: 4.69 log10CFU/ml
